# Experimental data: patent US9006208B2, “Agent for treatment of dry eye characterized by combining P2Y2 receptor agonist and hyaluronic acid or salt thereof, method for treating dry eye, and use of the P2Y2 receptor agonist and hyaluronic acid or salt thereof” (Santen Pharmaceutical Co., Ltd., priority 2010, dated 2015)
# Key:
# [1] = test system: rabbits; details: Current Eye Research 21(4), 782-787 (2000); cited from earlier work
# [2] = test system: normal male white rabbits; test: Pharmacological Test 1: change in tear meniscus area after ocular instillation (3% diquafosol sodium, 0.1% sodium hyaluronate); assay type: in vivo, rabbit; details: 50 μL instilled once, FIG. 1
# Protocol: The change in the tear fluid volume can be evaluated by measuring the value of a tear meniscus area stained with a fluorescein solution (Exp. Eye. Res., 78(3), 399-407 (2004)). Then, the time course of a change in the tear meniscus area value after the sequential administration of diquafosol sodium, which is a P2Y2 receptor agonist, and sodium hyaluronate to eyes was evaluated in accordance with the method of Murakami et al. (Ophthalmic Res., 34, 371-374 (2002)), using normal male white rabbits. […]
# A 0.1% fluorescein solution (3 μL) was administered onto a tear meniscus of the lower eyelid of each of normal male white rabbits (40 eyes of 20 rabbits in total), and a photograph of the tear meniscus that was stained with fluorescein accumulated in the eyelid was taken. The area of the stained tear meniscus part in the photograph was calculated using image analysis software, and the resultant value was employed as a baseline. […]
# The change in the tear meniscus area before and after the administration of each of the drugs was calculated as “Δ tear meniscus area value”. […]
# [3] = test system: rat model from which an exorbital lacrimal gland is excised, additionally applied airflow (corneal epithelial disorder); test: Pharmacological Test 2: corneal fluorescein staining score in rat dry eye model (exorbital lacrimal gland excised plus airflow); assay type: in vivo; details: 5 μL into both eyes 6 times per day for 6 weeks; 3% diquafosol sodium, 0.1% sodium hyaluronate; compared with non-administered group; FIG. 2
# Source text: A rat model from which an exorbital lacrimal gland is excised therefrom has been generally used as a model for evaluating therapeutic effects on corneal epithelial disorders induced by dry eye, and has also been used as a model for evaluating therapeutic effects of P2Y2 receptor agonists (Invest. Ophthalmol. Vis. Sci., 42(1), 96-100 (2001)). Using a dry eye model which is additionally applied airflow to the rat model, it was examined whether or not an improvement effect on corneal epithelial disorders could be achieved by the administration of a P2Y2 receptor agonist at a therapeutically effective concentration and hyaluronic acid or a salt thereof at a therapeutically effective concentration in combination. […]
# Six weeks after the initiation of the instillation into eyes, an affected part of the cornea was stained with fluorescein, and the occurrence of the corneal epithelial disorder was determined in accordance with the method by Murakami et al. (Journal of the Eye (Atarashii Ganka), 21(1), 87-90 (2004)). That is, with respect to each of an upper part, an intermediate part and a lower part of the cornea, scores of the degree of staining with fluorescein were determined in accordance with the criteria mentioned below, and the average value of the sum total of the scores was calculated. […]
# [4] = test system: normal male white rabbits; test: Pharmacological Test 3: change in tear meniscus area (3% diquafosol sodium, 0.002% sodium hyaluronate); assay type: in vivo, rabbit; details: 35 minutes after administration, 50 μL, combination: hyaluronate 5 min after diquafosol
# Protocol: For the purpose of examining as to whether or not an increase in tear meniscus area values is observed when a P2Y2 receptor agonist at a therapeutically effective concentration is combined with hyaluronic acid or a salt thereof at a concentration which is employed as an additive, the time course of a change in the tear meniscus area value after the sequential ocular instillation of the 3% diquafosol sodium and the 0.002% sodium hyaluronate was evaluated in the same manner as in Pharmacological test 1.
# A 3% diquafosol sodium ophthalmic solution was prepared in the same manner as in the above-mentioned Pharmacological test 1. A 0.002% sodium hyaluronate ophthalmic solution was prepared by diluting “Hyalein® ophthalmic solution 0.3%” manufactured and sold by Santen Pharmaceutical Co., Ltd. with physiological saline.
# With respect to normal male white rabbits (24 eyes of 12 rabbits in total), a photograph of a tear meniscus before the administration of a drug was taken in the same manner as in pharmacological test 1. […]
# (§1) The change in the tear meniscus area before and after the administration of each of the drugs was calculated as a “Δ tear meniscus area value”.
# [5] = test system: normal male white rabbits; test: Pharmacological Test 4: change in tear meniscus area (3% diquafosol sodium, 0.3% sodium hyaluronate); assay type: in vivo, rabbit; details: after 35 minutes, 50 μL, combination: hyaluronate 5 min after diquafosol
# Protocol: The time course of a change in tear meniscus area values after the sequential instillation of 3% diquafosol sodium and 0.3% sodium hyaluronate into eyes was evaluated in the same manner as in Pharmacological test 1.
# A 3% diquafosol sodium ophthalmic solution was prepared in the same manner as in the above-mentioned Pharmacological test 1. “Hyalein® ophthalmic solution 0.3%” manufactured and sold by Santen Pharmaceutical Co., Ltd. was used as a 0.3% sodium hyaluronate ophthalmic solution.
# With respect to each of normal male white rabbits (18 eyes of 9 rabbits in total), a photograph of a tear meniscus was taken before the administration of each of the drug in the same manner as in Pharmacological test 1. […]
# as §1
# [6] = clinical tests; Cornea 23(8), 784-792 (2004); cited from earlier work
Structure (SMILES),secretion of tear [1],Δ tear meniscus area value ([2]; 10 minutes after administration (of the first agent)),Δ tear meniscus area value ([2]; 35 minutes after administration (of the first agent)),fluorescein staining scores of the cornea [3],Δ tear meniscus area value [4],Δ tear meniscus area value [5],keratoconjunctival epithelial disorders [6],secretion of tear [6]
"Nc1ncnc2c1ncn2[C@@H]1O[C@H](COP(=O)(O)OP(=O)(O)OP(=O)(O)O)[C@@H](O)[C@H]1O [ATP, Adenosine 5′-triphosphate]",can promote the secretion of tear in rabbits,,,,,,,
"O=c1ccn([C@@H]2O[C@H](COP(=O)(O)OP(=O)(O)OP(=O)(O)OP(=O)(O)OC[C@H]3O[C@@H](n4ccc(=O)[nH]c4=O)C(O)[C@H]3O)[C@H](O)C2O)c(=O)[nH]1 (stereo partly drawn) [Diquafosol, P^1,P^4-bis(5′-uridyl)tetraphosphate]",,increase in the tear meniscus area value was observed,increase in the tear meniscus area value was observed,"the tendency of improvement in fluorescein staining scores was observed, the improvement that can be considered as being statistically significant was not observed",1 .127 mm^2,1.434 mm^2,ameliorated keratoconjunctival epithelial disorders,promoted the secretion of tear
"O=c1ccn([C@@H]2O[C@H](COP(=O)(O)OP(=O)(O)OP(=O)(O)O)[C@@H](O)[C@H]2O)c(=O)[nH]1 [UTP, Uridine 5′-triphosphate]",can promote the secretion of tear in rabbits,,,,,,,
